Common to all, as to experiment: NCI tumour cell line growth inhibition, 48 h
Experiment [1] concerns KM12.
For experiment [2], the system named is SN12C.
Experiment [3] relates to HCC 2998.
The subject of experiment [4] is SK-MEL-2.
Experiment [5] has as its system UACC-257.
The subject of experiment [6] is OVCAR-5.
For experiment [7], the system named is LOX IMVI.
The test system of experiment [8] is NCI-H460.
For experiment [9], the system named is SNB-19.
For experiment [10], the system named is A498.
Experiment [11] deals with MOLT-4.
The subject of experiment [12] is HCT-116.
Experiment [13] relates to SW-620.
In experiment [14] the test system is CAKI-1.
Experiment [15] relates to NCI-H226.
In experiment [16] the test system is A549.

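Following 48 hours of exposure in 96-well plates, responses at five concentrations were used to interpolate endpoints linearly. The concentration for 50% growth inhibition is given as GI50.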 Activity calls are given as the source filed them. Rule as the data show it: active = GI50 up to about 1.1 µM and inactive = higher. Where only a bound is given, the exact number is not on record here.

For the compound `COc1ccc(C2NC(c3ccc(OC)cc3)C(C)C(=O)C2C)cc1` (stereo not drawn), the GI50 was > 100 µM (inactive) in [1]; > 100 µM (inactive) in experiment [2]; > 100 µM (inactive) in experiment [3]; > 100 µM (inactive) in [4]; > 100 µM (inactive) in experiment [5]; 23.4 µM (inactive) in [6]. In addition, the GI50 in experiment [7] was > 100 µM (inactive); in experiment [8], > 100 µM (inactive); in [9], > 100 µM (inactive); in experiment [10], > 100 µM (inactive); in experiment [11], 46.7 µM (inactive); in experiment [12], 91.8 µM (inactive).

With `COc1ccc2c(c1)[n+]([O-])c(-c1ccc(Cl)c(Cl)c1)c(N)[n+]2[O-]`, the GI50 in experiment [1] is 34.3 µM (inactive); in experiment [2], 46.1 µM (inactive); in [13], 38.9 µM (inactive); in experiment [4], 19.9 µM (inactive); in experiment [5], 16.4 µM (inactive); in [14], 37.9 µM (inactive). Moreover, the GI50 was 36.8 µM (inactive) in experiment [6]; 45.1 µM (inactive) in experiment [15]; 25.1 µM (inactive) in [8]; 30.3 µM (inactive) in [16]; > 100 µM (inactive) in experiment [9]; 47.5 µM (inactive) in [10]. Further, the GI50 was 37.5 µM (inactive) in [11] and 42.9 µM (inactive) in experiment [12].

For the compound `Cc1cc(C)nc(NS(=O)(=O)c2ccc(Nc3c4ccc(Cl)cc4nc4c(C(=O)Nc5ccc(S(N)(=O)=O)cc5)cccc34)cc2)n1`, the GI50 in experiment [1] was 14.2 µM (inactive); in experiment [2], 15 µM (inactive); in experiment [3], 16.6 µM (inactive); in experiment [5] it was 18.8 µM (inactive); in experiment [6], 14.7 µM (inactive); in experiment [7] it was 16 µM (inactive). Also, the GI50 in experiment [8] is 17.1 µM (inactive); in [9] it was 24.6 µM (inactive); in experiment [10], 14.8 µM (inactive); in [11], 9.77 µM (inactive); in experiment [12] it was 16.6 µM (inactive).

`COc1cc2cnc3c4cc(O)ccc4ccc3c2cc1OC`: the GI50 in [1] was 51.4 µM (inactive); in [2] it was 35.2 µM (inactive); in [13] it was 54.7 µM (inactive); in experiment [3], 91 µM (inactive); in [4], 26.4 µM (inactive); in experiment [5] it was 56.6 µM (inactive). Further, the GI50 was > 100 µM (inactive) in experiment [14]; > 100 µM (inactive) in [6]; 26.4 µM (inactive) in experiment [15]; 42.6 µM (inactive) in experiment [7]; > 100 µM (inactive) in [8]; > 100 µM (inactive) in experiment [16]. Further, the values for the GI50 in experiment [9], in experiment [11] and in experiment [12] were 30.7 µM (inactive), 31.1 µM (inactive) and > 100 µM (inactive), respectively.

As to `CCCC(C(=O)OC)C1N/C(=N/C#N)N(Cc2ccccc2)C1=O` (stereo not drawn), the GI50 in experiment [1], in [2], in experiment [13], in experiment [3], in experiment [4] and in experiment [5] was > 100 µM (inactive) each time. Also, the GI50 in experiment [14], in [6], in [7], in experiment [8], in experiment [16] and in experiment [9] was > 100 µM (inactive) each time. In addition, the GI50 in experiment [11] and in experiment [12] was > 100 µM (inactive) in each case.

Turning to `N#CCCN(c1ccc(/C=N/c2nc(-c3ccccc3)cs2)cc1)S(=O)(=O)c1ccccc1`, the GI50 in experiment [1] is > 100 µM (inactive); in experiment [2], 92.5 µM (inactive); in [13], 83.8 µM (inactive); in experiment [3] it was 64.9 µM (inactive); in experiment [4] it was 86.9 µM (inactive); in experiment [5], 96.4 µM (inactive). The GI50 was 25.8 µM (inactive) in experiment [14]; > 100 µM (inactive) in [6]; > 100 µM (inactive) in experiment [7]; 76.2 µM (inactive) in experiment [16]; > 100 µM (inactive) in experiment [9]; 75.9 µM (inactive) in experiment [10]. The GI50 in experiment [11] is 44.7 µM (inactive); in experiment [12], 75.3 µM (inactive).

In the case of `O=C(CC(=O)N1N=C(n2ccc3ccccc32)CC1c1ccccc1)Nc1cccc(Cl)c1` (stereo not drawn), the GI50 in experiment [1], in experiment [2], in experiment [13], in experiment [3], in experiment [4] and in [5] was > 100 µM (inactive) throughout. For the same compound, the GI50 was > 100 µM (inactive) in experiment [6]; 66.4 µM (inactive) in experiment [7]; > 100 µM (inactive) in experiment [8]; > 100 µM (inactive) in experiment [16]; > 100 µM (inactive) in [9]; > 100 µM (inactive) in experiment [10]. The GI50 in [11] and in experiment [12] was > 100 µM (inactive) each time.

As for `COc1ccc(OC)c(NC(=O)C2=C(C)NC(C)=C(C(=O)Nc3cc(OC)ccc3OC)C2c2ccccc2)c1`, the GI50 in experiment [1] is 91.4 µM (inactive); in experiment [2], > 100 µM (inactive); in [13], > 100 µM (inactive); in experiment [3] it was > 100 µM (inactive); in experiment [4], > 100 µM (inactive); in [5] it was > 100 µM (inactive). The GI50 in experiment [14] is > 100 µM (inactive); in [6] it was > 100 µM (inactive); in [7] it was > 100 µM (inactive); in experiment [8] it was > 100 µM (inactive); in experiment [16], 85.1 µM (inactive); in experiment [9], > 100 µM (inactive). Further, the GI50 in [10] was > 100 µM (inactive); in experiment [11], 6.5 µM (inactive); in experiment [12] it was 45.5 µM (inactive).

With `O=c1[nH]cc(COCCO)c(=O)[nH]1`, the GI50 in [1], in experiment [2], in experiment [13], in [4], in experiment [5] and in experiment [14] was > 100 µM (inactive) in each case. The GI50 in experiment [6], in [15], in experiment [7], in [8], in experiment [16] and in [9] was > 100 µM (inactive) in each case. Further, the GI50 in [10], in [11] and in experiment [12] was > 100 µM (inactive) throughout.

On to `Cc1c2ccncc2c(C)c2c1[nH]c1ccc(OCC(F)(F)F)cc12`, for which the GI50 is 1.36 µM (inactive) in [1]; 1.37 µM (inactive) in [2]; 0.619 µM (active) in [13]; 1.58 µM (inactive) in experiment [4]; 1.89 µM (inactive) in [5]; 2.11 µM (inactive) in experiment [14]. The GI50 in [6] is 1.53 µM (inactive); in [15], 1.83 µM (inactive); in [7] it was 1.61 µM (inactive); in experiment [8], 1.18 µM (inactive); in experiment [16], 1.79 µM (inactive); in experiment [9] it was 1.64 µM (inactive). The GI50 is 0.824 µM (active) in [11] and 1.08 µM (active) in experiment [12].
